Test systems include HCT-15 colon; LOX IMVI melanoma; M14 melanoma; SN12C renal; HCT-116 colon; TK-10 renal; SR leukemia; OVCAR-8 ovarian; SF-295 CNS; MOLT-4 leukemia; SK-OV-3 ovarian; OVCAR-5 ovarian; PC-3 prostate; HS 578T breast; NCI/ADR-RES ovarian; DU-145 prostate; BT-549 breast.
Common to all, as to experiment: NCI tumour cell line growth inhibition, 48 h

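Briefly, cells in 96-well plates were exposed to five compound concentrations for 48 h, and endpoints were estimated by linear interpolation. Definition used: TGI = concentration required for complete inhibition of growth.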 Some results are limits rather than exact numbers.

In the case of `CN(C)CCSC(=Nc1ccccc1)n1cccc1`, the TGI with HCT-15 colon, in the assay on LOX IMVI melanoma, in the assay with M14 melanoma, in the assay on SN12C renal, with HCT-116 colon and with TK-10 renal was above 100 µM throughout. The TGI in the assay on SR leukemia, in the assay on OVCAR-8 ovarian, in the assay with SF-295 CNS, with MOLT-4 leukemia, in the assay with SK-OV-3 ovarian and in the assay with OVCAR-5 ovarian was above 100 µM each time.
Turning to `CC(C)C1COC(C(C)(C)C2=N[C@@H](C(C)C)CO2)=N1` (stereo partly drawn), the TGI with HCT-15 colon, in the assay on LOX IMVI melanoma, with M14 melanoma, with SN12C renal, in the assay with HCT-116 colon and in the assay with TK-10 renal was above 100 µM in each case. The TGI in the assay with SR leukemia, with OVCAR-8 ovarian, in the assay on SF-295 CNS, in the assay with MOLT-4 leukemia, in the assay on SK-OV-3 ovarian and in the assay on OVCAR-5 ovarian was above 100 µM each time.
On to `COc1ccc(C2S/C(=C\c3ccc([N+](=O)[O-])cc3)C(=O)N2NC(=O)Cc2ccccc2)cc1` (stereo not drawn), for which the TGI with HCT-15 colon, in the assay on LOX IMVI melanoma, with M14 melanoma, in the assay with SN12C renal, in the assay on HCT-116 colon and in the assay with TK-10 renal was above 100 µM in each case. For the same molecule, the TGI in the assay on SR leukemia, in the assay on OVCAR-8 ovarian, in the assay with SF-295 CNS, in the assay on MOLT-4 leukemia, in the assay with SK-OV-3 ovarian and with OVCAR-5 ovarian was above 100 µM each time.
In the case of `COc1cc2c(cc1OC)C(Cc1cc(Br)c(OC)c(OC)c1)=[N+](C)CC2`, the TGI in the assay on HCT-15 colon, in the assay with LOX IMVI melanoma, in the assay on M14 melanoma, in the assay on SN12C renal, in the assay with HCT-116 colon and with TK-10 renal was above 100 µM in each case. The TGI with OVCAR-8 ovarian, in the assay with SF-295 CNS, with SK-OV-3 ovarian and in the assay with OVCAR-5 ovarian was above 100 µM throughout.
Turning to `Cc1ccc(C2SCc3nc4ccccc4n32)cc1` (stereo not drawn), the TGI with LOX IMVI melanoma was 40.6 µM; in the assay on M14 melanoma it was above 100 µM; in the assay with SN12C renal, 38.6 µM; with PC-3 prostate it was 21.2 µM; with HCT-116 colon it was 14 µM; with TK-10 renal, 25.1 µM. Further, the TGI with HS 578T breast was 7.17 µM; in the assay on OVCAR-8 ovarian, 30 µM; in the assay on SF-295 CNS, 7.17 µM; in the assay on NCI/ADR-RES ovarian, 12.5 µM; with MOLT-4 leukemia, 15.3 µM; in the assay on SK-OV-3 ovarian, 85.8 µM. Moreover, the TGI in the assay with DU-145 prostate and in the assay with OVCAR-5 ovarian was above 100 µM each time.
Turning to `O[C@]12c3ccccc3C1CCCC2N1CCOCC1` (stereo partly drawn), the TGI with HCT-15 colon, with LOX IMVI melanoma, with M14 melanoma, in the assay on SN12C renal, in the assay on HCT-116 colon and in the assay with TK-10 renal was above 100 µM in each case. Also, the TGI with OVCAR-8 ovarian, in the assay on SF-295 CNS, in the assay with MOLT-4 leukemia and in the assay on SK-OV-3 ovarian was above 100 µM throughout.
On to `COc1cc(CO)cc2c1[nH]c1ccccc12`, for which the TGI in the assay with HCT-15 colon, in the assay with LOX IMVI melanoma, in the assay on M14 melanoma, with SN12C renal, with HCT-116 colon and in the assay on TK-10 renal was above 25 µM each time. Moreover, the TGI in the assay on SR leukemia, in the assay with OVCAR-8 ovarian, with MOLT-4 leukemia, with SK-OV-3 ovarian and in the assay with OVCAR-5 ovarian was above 25 µM each time.
For the molecule `CC(=O)OCc1ncccc1C(OC(C)=O)OC(C)=O`, the TGI with HCT-15 colon, in the assay on LOX IMVI melanoma, in the assay on M14 melanoma, in the assay on SN12C renal, with HCT-116 colon and in the assay on TK-10 renal was above 100 µM each time. Moreover, the TGI with SR leukemia, in the assay with OVCAR-8 ovarian, in the assay on SF-295 CNS, with MOLT-4 leukemia, in the assay on SK-OV-3 ovarian and with OVCAR-5 ovarian was above 100 µM each time.
`O=C1CCCc2cc3c(cc21)CC1(C3)Cc2cc3c(cc2C1)C(=O)CCC3`: the TGI in the assay on HCT-15 colon is above 59.6 µM; in the assay on LOX IMVI melanoma it was above 65.3 µM; in the assay with M14 melanoma, 11.8 µM; with SN12C renal it was above 85.3 µM; with PC-3 prostate it was above 100 µM; with HCT-116 colon it was 37.9 µM. For the same molecule, the TGI was 90.2 µM in the assay with BT-549 breast; 43.1 µM in the assay on TK-10 renal; above 100 µM with HS 578T breast; 36.3 µM with OVCAR-8 ovarian; above 56 µM with SF-295 CNS; 6.65 µM in the assay with NCI/ADR-RES ovarian. For the same molecule, the TGI was above 43.1 µM in the assay with MOLT-4 leukemia, above 44.7 µM in the assay with SK-OV-3 ovarian, 19 µM in the assay with DU-145 prostate and above 62.5 µM with OVCAR-5 ovarian.
For `CC1(C)OC2C(O1)[C@H]1OC(C(Cl)(Cl)Cl)=N[C@H]1C(I)[C@H]2N1C(=O)c2ccccc2C1=O` (stereo partly drawn), the TGI is above 100 µM with HCT-15 colon; above 100 µM in the assay with LOX IMVI melanoma; above 100 µM in the assay with M14 melanoma; above 100 µM in the assay with SN12C renal; above 100 µM in the assay on HCT-116 colon; 65.4 µM in the assay with SR leukemia. Further, the TGI in the assay on OVCAR-8 ovarian was above 100 µM; in the assay with SF-295 CNS, above 100 µM; in the assay with MOLT-4 leukemia, 58.3 µM; with OVCAR-5 ovarian, above 100 µM.
For `Cc1ccc([N+](=O)[O-])cc1NC(=O)/C(CC(=O)c1sc(C(N)=S)nc1C)=N\N`, the TGI with HCT-15 colon, in the assay on LOX IMVI melanoma, with M14 melanoma, with HCT-116 colon, with TK-10 renal and with SR leukemia was above 100 µM each time. Further, the TGI with OVCAR-8 ovarian, in the assay with SF-295 CNS, with MOLT-4 leukemia, in the assay on SK-OV-3 ovarian and in the assay with OVCAR-5 ovarian was above 100 µM each time.
Regarding `COc1ccc([C@H]2[C@@H]3CCc4ccccc4C3=NN2C(N)=S)cc1OC`, the TGI in the assay with HCT-15 colon, in the assay on LOX IMVI melanoma, with M14 melanoma, with SN12C renal, with HCT-116 colon and in the assay on TK-10 renal was above 100 µM in each case. Besides, the TGI in the assay with SR leukemia is 72.4 µM; in the assay with OVCAR-8 ovarian, above 100 µM; in the assay with MOLT-4 leukemia, above 100 µM; with SK-OV-3 ovarian, above 100 µM; with OVCAR-5 ovarian it was above 100 µM.
In the case of `NC(=S)N/N=C(/CCN1CCCC1)CC(C1=C(O)C2=CCCCC2OC1=O)c1ccccc1` (stereo not drawn), the TGI with HCT-15 colon, in the assay with LOX IMVI melanoma, with M14 melanoma, in the assay with SN12C renal, in the assay with HCT-116 colon and with TK-10 renal was above 100 µM each time. For the same molecule, the TGI in the assay with SR leukemia, in the assay with OVCAR-8 ovarian, in the assay on SF-295 CNS, in the assay with SK-OV-3 ovarian and in the assay on OVCAR-5 ovarian was above 100 µM each time.
For `C[C@@H]1C[C@@H]2C(=O)N(c3ccccc3)C(=O)[C@@H]2c2[nH]c3ccc(Br)cc3c21`, the TGI in the assay with HCT-15 colon, in the assay on LOX IMVI melanoma, in the assay with M14 melanoma, in the assay on SN12C renal, in the assay on HCT-116 colon and in the assay on TK-10 renal was above 100 µM in each case. In addition, the TGI is above 100 µM with SR leukemia; 47.1 µM in the assay on OVCAR-8 ovarian; 90.9 µM in the assay on SF-295 CNS; above 100 µM in the assay on MOLT-4 leukemia; 44.5 µM with SK-OV-3 ovarian; above 100 µM with OVCAR-5 ovarian.
As to `N#CC(C(=S)Nc1ccccc1)=C1Nc2ccccc2N1`, the TGI in the assay on HCT-15 colon, in the assay on LOX IMVI melanoma, in the assay on M14 melanoma, in the assay on SN12C renal, in the assay with HCT-116 colon and with TK-10 renal was above 10 µM in each case. For the same molecule, the TGI in the assay with SR leukemia, with OVCAR-8 ovarian, with MOLT-4 leukemia, in the assay with SK-OV-3 ovarian and in the assay on OVCAR-5 ovarian was above 10 µM each time.
For the molecule `COC(=O)[C@H]1C2CC[C@@H]3C45C[C@@H](c6ccoc6)O[C@@H]4O[C@@H](O2)C31CCC5C` (stereo partly drawn), the TGI in the assay with HCT-15 colon, with LOX IMVI melanoma, in the assay with M14 melanoma, with SN12C renal, in the assay with HCT-116 colon and with TK-10 renal was above 100 µM in each case. Further, the TGI in the assay with OVCAR-8 ovarian, in the assay on SF-295 CNS, with MOLT-4 leukemia, in the assay on SK-OV-3 ovarian and in the assay with OVCAR-5 ovarian was above 100 µM each time.
With `CC1=C(c2ccccc2)CON(c2ccccc2)C1`, the TGI with HCT-15 colon is above 100 µM; in the assay with LOX IMVI melanoma it was above 100 µM; in the assay with M14 melanoma, above 100 µM; in the assay on SN12C renal, above 100 µM; in the assay with HCT-116 colon, 79.9 µM; in the assay with SR leukemia, above 100 µM. Besides, the TGI in the assay with OVCAR-8 ovarian, with SF-295 CNS, in the assay on MOLT-4 leukemia, with SK-OV-3 ovarian and with OVCAR-5 ovarian was above 100 µM in each case.
For `COc1ccc(/C=N/NC(=O)CSc2nc(-c3ccccc3)c(-c3ccccc3)[nH]2)cc1OC`, the TGI in the assay on HCT-15 colon is 83.9 µM; in the assay with LOX IMVI melanoma, 44.8 µM; with M14 melanoma, 33.8 µM; with SN12C renal it was 94.4 µM; in the assay with HCT-116 colon, 87.2 µM; with TK-10 renal, above 100 µM. Further, the TGI in the assay on OVCAR-8 ovarian was 36.3 µM; with SF-295 CNS, 55.9 µM; with MOLT-4 leukemia, 37.6 µM; in the assay on SK-OV-3 ovarian, 63.3 µM; in the assay with OVCAR-5 ovarian, 64 µM.
With `CCOC(=O)/C(=C/c1ccccc1)N(CC)CC`, the TGI in the assay on HCT-15 colon, with LOX IMVI melanoma, in the assay with M14 melanoma, in the assay with SN12C renal, in the assay with HCT-116 colon and in the assay on TK-10 renal was above 100 µM each time. Moreover, the TGI with SR leukemia, in the assay with OVCAR-8 ovarian, in the assay on SF-295 CNS, in the assay on MOLT-4 leukemia, in the assay with SK-OV-3 ovarian and in the assay on OVCAR-5 ovarian was above 100 µM throughout.
For `O=C(c1nc2ccc(Cl)cc2[nH]c1=O)C(O)c1ccco1` (stereo not drawn), the TGI with HCT-15 colon is 37.1 µM; with LOX IMVI melanoma it was above 100 µM; in the assay with M14 melanoma, above 100 µM; with HCT-116 colon, above 100 µM; with TK-10 renal it was above 100 µM; in the assay on SF-295 CNS, above 100 µM. Further, the TGI with MOLT-4 leukemia, with SK-OV-3 ovarian and in the assay with OVCAR-5 ovarian was above 100 µM in each case.
Regarding `COc1ccc(-n2nnc3c(C#N)c(C)c(-c4ccccc4)n3c2=O)cc1`, the TGI in the assay on HCT-15 colon was above 100 µM; in the assay with LOX IMVI melanoma it was above 100 µM; with M14 melanoma, above 26.7 µM; with SN12C renal, above 63.7 µM; in the assay on PC-3 prostate it was above 100 µM; with HCT-116 colon, 2.65 µM. The TGI in the assay on BT-549 breast was above 100 µM; in the assay with TK-10 renal it was above 100 µM; in the assay with SR leukemia it was above 100 µM; in the assay on HS 578T breast, above 100 µM; in the assay with OVCAR-8 ovarian, above 70.8 µM; with SF-295 CNS it was above 27.5 µM. The TGI with NCI/ADR-RES ovarian was 21.1 µM; in the assay with MOLT-4 leukemia it was above 58.1 µM; in the assay with SK-OV-3 ovarian it was above 22.4 µM; in the assay on DU-145 prostate, 8 µM; in the assay with OVCAR-5 ovarian it was above 57.6 µM.
On to `CCOc1cc2cnc3c4cc(OC)c(OC)cc4ccc3c2cc1OC`, for which the TGI in the assay on HCT-15 colon, in the assay with LOX IMVI melanoma, with M14 melanoma, in the assay with SN12C renal, in the assay with HCT-116 colon and with TK-10 renal was above 100 µM in each case. For the same molecule, the TGI with SR leukemia, with OVCAR-8 ovarian, in the assay with SF-295 CNS, with MOLT-4 leukemia, in the assay with SK-OV-3 ovarian and in the assay with OVCAR-5 ovarian was above 100 µM throughout.

The record behind these values is PubChem BioAssay (NCI).
